Patent publication US20250170246A1 (priority 2022, published 2025)
“Also recorded” adds a separate entry of the source.

Legend:
[1] = administered parenterally; cited from earlier work
SARS CoV-2 (WA1 strain) [2] = type: in vivo, K18-hACE2-Tg mice
[3] = multiple human clinical trials; cited from earlier work
[4] = cited from earlier work
influenza = assay: Antiviral effect against influenza
SARS CoV-2 (WA1 strain) [5] = assay: SARS CoV-2-infected human precision-cut lung slices, IL-8 in culture supernatants; type: cell-based; settings: 100 μM CDP-choline added daily, 4×10^5 TCID50 SARS CoV-2 WA1, 2 and 3 dpi, vs. saline
Excerpt: CDP-choline reduces SARS CoV-2-induced inflammation in vitro.

[6] = ultimately excreted in expired CO2 and via urine; cited from earlier work
[7] = male K18-hACE2-Tg mice, 5 mg/kg i.p. daily, 4 dpi, relative to infected saline-treated mice
[8] = male K18-hACE2-Tg mice, 10^5 TCID50 SARS CoV-2 WA1, 5 mg/kg i.p. daily 1-3 dpi, read at 4 dpi

## C[N+](C)(C)CCOP(=O)(O)OP(=O)(O)OC[C@H]1O[C@@H](n2ccc(N)nc2=O)C(O)C1O (stereo partly shown) [CDP-choline, Cytidine diphosphate-choline]
[1]
  bioavailability: excellent
SARS CoV-2 (WA1 strain) [2]; CoV-2-infected male K18-hACE2-Tg mice
  reduction of whole lung ccl-3/mip-1a gene expression: > 5 fold
SARS CoV-2 (WA1 strain) [2]; [7]
  reduction of whole lung il-6 gene expression: > 5 fold
  reduction of whole lung kc/cxcl-1 gene expression: > 5 fold
SARS CoV-2 (WA1 strain) [2]; male K18-hACE2-Tg mice, 5 mg/kg i.p. daily, 4 dpi, vs. saline, 5 mg/kg
  SARS CoV-2 replication in the lungs (in words): significantly reduces; also recorded: significantly decreased
SARS CoV-2 (WA1 strain) [2]; [8]
  SARS CoV-2-induced bradycardia (heart rate): prevents development; also recorded: completely prevented; also recorded: attenuated
  SARS CoV-2-induced hypoxemia (carotid arterial % O2 saturation, SaO2): prevents development; also recorded: completely prevented; also recorded: reversed
SARS CoV-2 (WA1 strain) [2]; male K18-hACE2-Tg mice, daily post-infection CDP-choline
  reduction of viral replication: 0.5 logs
[3]
  safety in human clinical trials: safe
[4]
  aqueous solubility: high
influenza
  antiviral effect against influenza: no such antiviral effect
SARS CoV-2 (WA1 strain) [5]
  production of IL-8 by SARS CoV-2-infected human precision-cut lung slices: reduced production; also recorded: significantly reduced; also recorded: attenuated
[6]
  metabolism of CDP-choline not incorporated into phospholipids: rapidly metabolized into cytidine and choline
